Laboratory results from US7118895B2, “Process for producing aglycon by using diglycosidase and flavor-improved food containing the aglycon and converting agent to be used in the process” (Amano Enzyme Inc., priority 2000, dated 2006).

System: Crude diglycosidase
Test: Examination of temperature in the conversion into isoflavone aglycons by diglycosidase using soybean materials
Assay type: biochemical, Penicillium multicolor IAM7153
Set-up: Decomposition efficiency of glycitin family in roasted soy flour / Decomposition efficiency of daidzin family in roasted soy flour / Decomposition efficiency of genistin family in soymilk / Decomposition efficiency of daidzin family in soymilk / Decomposition efficiency of glycitin family in defatted soybean / Decomposition efficiency of daidzin family in defatted soybean: concentration or dose not given beside the values
Outline: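 Soybean materials (50 mg) suspended in 20 mM acetate buffer pH 4.0 reacted with crude diglycosidase diluted to 1.88 AU/mL at 80, 65, 55, 45, 37 or 30° C. Reactions stopped with ethanol at 0, 1, 3 and 6 h; isoflavone glycosides and aglycons in supernatant detected by HPLC.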

[1] = 30° C., heat treatment of enzyme no, reaction time 0 h
[2] = 30° C., heat treatment of enzyme no, reaction time 1 h
[3] = 30° C., heat treatment of enzyme no, reaction time 3 h
[4] = 30° C., heat treatment of enzyme no, reaction time 6 h
[5] = 30° C., heat treatment of enzyme yes, reaction time 6 h
[6] = 30 °C, heat treatment of enzyme: no, 0 h
[7] = 30 °C, heat treatment of enzyme: no, 1 h
[8] = 30 °C, heat treatment of enzyme: no, 3 h
[9] = 30 °C, heat treatment of enzyme: no, 6 h
[10] = 30 °C, heat treatment of enzyme: yes, 6 h
[11] = 45° C., heat treatment of enzyme no, reaction time 0 h
[12] = 45° C., heat treatment of enzyme no, reaction time 1 h
[13] = 45° C., heat treatment of enzyme no, reaction time 3 h
[14] = 45° C., heat treatment of enzyme no, reaction time 6 h
[15] = 45° C., heat treatment of enzyme yes, reaction time 6 h
[16] = 45 °C, heat treatment of enzyme: no, 0 h
[17] = 45 °C, heat treatment of enzyme: no, 1 h
[18] = 45 °C, heat treatment of enzyme: no, 3 h
[19] = 45 °C, heat treatment of enzyme: no, 6 h
[20] = 45 °C, heat treatment of enzyme: yes, 6 h
[21] = 55° C., heat treatment of enzyme no, reaction time 0 h
[22] = 55° C., heat treatment of enzyme no, reaction time 1 h
[23] = 55° C., heat treatment of enzyme no, reaction time 3 h
[24] = 55° C., heat treatment of enzyme no, reaction time 6 h
[25] = 55° C., heat treatment of enzyme yes, reaction time 6 h
[26] = 55 °C, heat treatment of enzyme: no, 0 h
[27] = 55 °C, heat treatment of enzyme: no, 1 h
[28] = 55 °C, heat treatment of enzyme: no, 3 h
[29] = 55 °C, heat treatment of enzyme: no, 6 h
[30] = 55 °C, heat treatment of enzyme: yes, 6 h
[31] = 65° C., heat treatment of enzyme no, reaction time 0 h
[32] = 65° C., heat treatment of enzyme no, reaction time 1 h
[33] = 65° C., heat treatment of enzyme no, reaction time 3 h
[34] = 65° C., heat treatment of enzyme no, reaction time 6 h
[35] = 65° C., heat treatment of enzyme yes, reaction time 6 h
[36] = 65 °C, heat treatment of enzyme: no, 0 h
[37] = 65 °C, heat treatment of enzyme: no, 1 h
[38] = 65 °C, heat treatment of enzyme: no, 3 h
[39] = 65 °C, heat treatment of enzyme: no, 6 h
[40] = 65 °C, heat treatment of enzyme: yes, 6 h
[41] = 80° C., heat treatment of enzyme no, reaction time 0 h
[42] = 80° C., heat treatment of enzyme no, reaction time 1 h
[43] = 80° C., heat treatment of enzyme no, reaction time 3 h
[44] = 80° C., heat treatment of enzyme no, reaction time 6 h
[45] = 80° C., heat treatment of enzyme yes, reaction time 6 h
[46] = 80 °C, heat treatment of enzyme: no, 0 h
[47] = 80 °C, heat treatment of enzyme: no, 1 h
[48] = 80 °C, heat treatment of enzyme: no, 3 h
[49] = 80 °C, heat treatment of enzyme: no, 6 h
[50] = 80 °C, heat treatment of enzyme: yes, 6 h

## CC(=O)OC[C@H]1O[C@@H](Oc2cc(O)c3c(=O)c(-c4ccc(O)cc4)coc3c2)[C@H](O)[C@@H](O)[C@@H]1O [acetylgenistin, 6″-O-acetylgenistin]
[1]
  Decomposition efficiency of genistin family in concentrated soybean protein: 43.1%
  Decomposition efficiency of genistin family in defatted soybean: 1.7%
[2]
  Decomposition efficiency of genistin family in concentrated soybean protein: 43.2%
  Decomposition efficiency of genistin family in defatted soybean: 1.3%
[3]
  Decomposition efficiency of genistin family in concentrated soybean protein: 43.0%
  Decomposition efficiency of genistin family in defatted soybean: 0.7%
[4]
  Decomposition efficiency of genistin family in concentrated soybean protein: 42.5%
  Decomposition efficiency of genistin family in defatted soybean: 0.1%
[5]
  Decomposition efficiency of genistin family in concentrated soybean protein: 41.5%
  Decomposition efficiency of genistin family in defatted soybean: 0.4%
[6]
  Decomposition efficiency of genistin family in roasted soy flour: 45.5%
  Decomposition efficiency of genistin family in soymilk: 0.9%
[7]
  Decomposition efficiency of genistin family in roasted soy flour: 45.3%
  Decomposition efficiency of genistin family in soymilk: not detected
[8]
  Decomposition efficiency of genistin family in roasted soy flour: 43.8%
  Decomposition efficiency of genistin family in soymilk: not detected
[9]
  Decomposition efficiency of genistin family in roasted soy flour: 40.6%
  Decomposition efficiency of genistin family in soymilk: not detected
[10]
  Decomposition efficiency of genistin family in roasted soy flour: 43.8%
  Decomposition efficiency of genistin family in soymilk: 0.9%
[11]
  Decomposition efficiency of genistin family in concentrated soybean protein: 43.0%
  Decomposition efficiency of genistin family in defatted soybean: 1.5%
[12]
  Decomposition efficiency of genistin family in concentrated soybean protein: 42.8%
  Decomposition efficiency of genistin family in defatted soybean: 0.8%
[13]
  Decomposition efficiency of genistin family in concentrated soybean protein: 41.0%
  Decomposition efficiency of genistin family in defatted soybean: 0.3%
[14]
  Decomposition efficiency of genistin family in concentrated soybean protein: 39.6%
  Decomposition efficiency of genistin family in defatted soybean: 0.2%
[15]
  Decomposition efficiency of genistin family in concentrated soybean protein: 38.9%
  Decomposition efficiency of genistin family in defatted soybean: 0.2%
[16]
  Decomposition efficiency of genistin family in roasted soy flour: 45.3%
  Decomposition efficiency of genistin family in soymilk: 0.9%
[17]
  Decomposition efficiency of genistin family in roasted soy flour: 43.6%
  Decomposition efficiency of genistin family in soymilk: not detected
[18]
  Decomposition efficiency of genistin family in roasted soy flour: 38.5%
  Decomposition efficiency of genistin family in soymilk: not detected
[19]
  Decomposition efficiency of genistin family in roasted soy flour: 31.7%
  Decomposition efficiency of genistin family in soymilk: not detected
[20]
  Decomposition efficiency of genistin family in roasted soy flour: 39.5%
  Decomposition efficiency of genistin family in soymilk: 0.6%
[21]
  Decomposition efficiency of genistin family in concentrated soybean protein: 42.9%
  Decomposition efficiency of genistin family in defatted soybean: 1.7%
[22]
  Decomposition efficiency of genistin family in concentrated soybean protein: 43.1%
  Decomposition efficiency of genistin family in defatted soybean: 0.7%
[23]
  Decomposition efficiency of genistin family in concentrated soybean protein: 41.1%
  Decomposition efficiency of genistin family in defatted soybean: 0.2%
[24]
  Decomposition efficiency of genistin family in concentrated soybean protein: 39.0%
  Decomposition efficiency of genistin family in defatted soybean: 0.1%
[25]
  Decomposition efficiency of genistin family in concentrated soybean protein: 41.1%
  Decomposition efficiency of genistin family in defatted soybean: 0.4%
[26]
  Decomposition efficiency of genistin family in roasted soy flour: 45.7%
  Decomposition efficiency of genistin family in soymilk: 0.6%
[27]
  Decomposition efficiency of genistin family in roasted soy flour: 42.5%
  Decomposition efficiency of genistin family in soymilk: not detected
[28]
  Decomposition efficiency of genistin family in roasted soy flour: 34.0%
  Decomposition efficiency of genistin family in soymilk: not detected
[29]
  Decomposition efficiency of genistin family in roasted soy flour: 27.3%
  Decomposition efficiency of genistin family in soymilk: not detected
[30]
  Decomposition efficiency of genistin family in roasted soy flour: 39.9%
  Decomposition efficiency of genistin family in soymilk: 0.7%
[31]
  Decomposition efficiency of genistin family in concentrated soybean protein: 43.1%
  Decomposition efficiency of genistin family in defatted soybean: 1.5%
[32]
  Decomposition efficiency of genistin family in concentrated soybean protein: 45.2%
  Decomposition efficiency of genistin family in defatted soybean: 1.2%
[33]
  Decomposition efficiency of genistin family in concentrated soybean protein: 44.0%
  Decomposition efficiency of genistin family in defatted soybean: 1.2%
[34]
  Decomposition efficiency of genistin family in concentrated soybean protein: 43.4%
  Decomposition efficiency of genistin family in defatted soybean: 1.1%
[35]
  Decomposition efficiency of genistin family in concentrated soybean protein: 42.3%
  Decomposition efficiency of genistin family in defatted soybean: 1.3%
[36]
  Decomposition efficiency of genistin family in roasted soy flour: 45.5%
  Decomposition efficiency of genistin family in soymilk: 0.9%
[37]
  Decomposition efficiency of genistin family in roasted soy flour: 43.6%
  Decomposition efficiency of genistin family in soymilk: not detected
[38]
  Decomposition efficiency of genistin family in roasted soy flour: 40.5%
  Decomposition efficiency of genistin family in soymilk: not detected
[39]
  Decomposition efficiency of genistin family in roasted soy flour: 38.8%
  Decomposition efficiency of genistin family in soymilk: not detected
[40]
  Decomposition efficiency of genistin family in roasted soy flour: 44.3%
  Decomposition efficiency of genistin family in soymilk: 1.1%
[41]
  Decomposition efficiency of genistin family in concentrated soybean protein: 43.0%
  Decomposition efficiency of genistin family in defatted soybean: 1.5%
[42]
  Decomposition efficiency of genistin family in concentrated soybean protein: 44.0%
  Decomposition efficiency of genistin family in defatted soybean: 1.8%
[43]
  Decomposition efficiency of genistin family in concentrated soybean protein: 43.6%
  Decomposition efficiency of genistin family in defatted soybean: 2.1%
[44]
  Decomposition efficiency of genistin family in concentrated soybean protein: 43.4%
  Decomposition efficiency of genistin family in defatted soybean: 2.5%
[45]
  Decomposition efficiency of genistin family in concentrated soybean protein: 41.4%
  Decomposition efficiency of genistin family in defatted soybean: 2.4%
[46]
  Decomposition efficiency of genistin family in roasted soy flour: 45.3%
  Decomposition efficiency of genistin family in soymilk: 0.9%
[47]
  Decomposition efficiency of genistin family in roasted soy flour: 48.5%
  Decomposition efficiency of genistin family in soymilk: 0.9%
[48]
  Decomposition efficiency of genistin family in roasted soy flour: 48.2%
  Decomposition efficiency of genistin family in soymilk: 1.0%
[49]
  Decomposition efficiency of genistin family in roasted soy flour: 47.7%
  Decomposition efficiency of genistin family in soymilk: 2.3%
[50]
  Decomposition efficiency of genistin family in roasted soy flour: 43.4%
  Decomposition efficiency of genistin family in soymilk: 2.5%
